Laboratory results reported in patent publication US6995178B2, “Insecticidal anthranilamides” (E. I. du Pont de Nemours and Company, priority 2000, dated 2006).

melting point: 216 to 217 °C
Structure (SMILES): Cc1cccc(C(=O)NC(C)C)c1NC(=O)c1cnc(C(F)(F)F)nc1C [Example 5, 4-Methyl-N-[2-methyl-6-[[(1-methylethyl)amino]carbonyl]phenyl]-2-(trifluoromethyl)-5-pyrimidinecarboxamide]
